Data: patent US11643437B2, “Tandem repeat cancer-targeting peptides for molecular conjugation or engineering and uses thereof in cancer theranostics” (Chang Gung Memorial Hospital, priority 2020, dated 2023)
Where no end group is shown, it is not given here.

Experiments:
[1] = target: peptide-binding domain of GRP78 (GRP78-PBD, amino acids 421-639) (Homo sapiens, UniProt P11021); assay: Surface plasmon resonance, GRP78-PBD binding to chip-bound N-terminal biotin-labeled CTPs/TR-CTPs; conditions: N-terminal GGGGS extension, peptide immobilized on streptavidin chip; for Kd: read-out: Dissociation constant KD
Description: Biotin-labeled TR-CTPs and CTPs were synthesized (Biotools Co., Ltd, Taiwan) to evaluate kinetics of binding to GRP78 by surface plasmon resonance. TR-CTPs and CTPs were extended by five amino acids (GGGGS; SEQ ID NO: 9) at their N-termini. The N-termini were labeled with a single biotin molecule per TR-CTP/CTP through an aminohexanoic acid linkage.
Also biotin labeled were two negative control peptides, in which the L-Leu residues within the sequences of F4P6-TR-CTP and F4P13-TR-CTP were replaced with D-Leu residues (dF4P6 and dF4P13, respectively).
(§1) Streptavidin was immobilized to a sensor chip (CMS; GE Healthcare) having a matrix of carboxymethylated dextran covalently attached to a gold surface using a standard amine-coupling method according to established procedures (GE Healthcare). The biotin-labeled TR-CTPs were immobilized on the chip by flowing them over the chip at a flow rate of 5 μl/min using HBS-P+ (GE Healthcare) as the running buffer.
(§2) Sensor chips were regenerated by washing the chip surface for 30 s with glycine buffer (10 mM; pH 11.5). Chips were reused after two chip regeneration cycles followed by a 120 s wash with running buffer.

[2] = target: T1, GRP78-PBD (Homo sapiens, UniProt P11021); assay: Surface plasmon resonance, GRP78-PBD binding to chip-bound C-terminal biotin-labeled CTPs/TR-CTPs; conditions: C-terminal GGGGSK extension, biotin on C-terminal lysine; for Kd: read-out: Dissociation constant KD
Description: as §1, §2
The P13-series peptides described above in Example 1 were also biotin labeled after extending them at their C-termini with the sequence GGGGSK (SEQ ID NO: 10). Biotin was conjugated to the C-terminal lysine residue using standard techniques. Binding affinities of GRP78-PBD for the sensor chip-bound peptides were determined as described above in Example 2.

[3] = target: T1, GRP78-PBD; assay: Surface plasmon resonance, GRP78-PBD binding to F4P6-BsAb amine-coupled to sensor chip; conditions: F4P6-BsAb directly coupled to sensor chip by amine-coupling
Description: as §1, §2
Following expression and purification of F4P6-BsAb, the kinetics of GRP78-PDB binding to it was evaluated by surface plasmon resonance as described in Example 1 above, differing in that the F4P6-BsAb was directly coupled to the CMS sensor chip by amine-coupling.

[4] = system: N87 gastric cancer target cells; assay: PBMC-mediated cell killing, xCELLigence RTCA, N87; type: cell-based; conditions: 12.5 nM antibody, effector-to-target ratio 10:1, 90 h incubation
Description: (§3) The ability of bispecific antibody-like construct F4P6-BsAb to induce cell killing by peripheral blood mononuclear cells (PBMC) was tested on TOV21G ovarian cancer target cells and N87 gastric cancer target cells.
(§4) Target cells were seeded at 2×10^4 cells per well of a 96-well electronic microtiter plate (“E-plate”; ACEA Biosciences, Inc.) and allowed to adhere for 2 h. PBMC effector cells, PBMC effector cells plus F4P6-BsAb, and PBMC effector cells plus Ctrl-BsAb that lacks the […] sequence were added to reach a final effector-to-target ratio of 10:1. The concentration of F4P6-BsAb and Ctrl-BsAb was 12.5 nM. Data was gathered and quantified using an xCELLigence Real-Time Cell Analysis system (“RTCA”; ACEA Biosciences, Inc.) as directed by the manufacturer.

[5] = system: TOV21G ovarian cancer target cells; assay: PBMC-mediated cell killing, xCELLigence RTCA, TOV21G; type: cell-based; conditions: 12.5 nM antibody, effector-to-target ratio 10:1, 40 h incubation
Description: as §3, §4

T1 sequence (P11021 421-639): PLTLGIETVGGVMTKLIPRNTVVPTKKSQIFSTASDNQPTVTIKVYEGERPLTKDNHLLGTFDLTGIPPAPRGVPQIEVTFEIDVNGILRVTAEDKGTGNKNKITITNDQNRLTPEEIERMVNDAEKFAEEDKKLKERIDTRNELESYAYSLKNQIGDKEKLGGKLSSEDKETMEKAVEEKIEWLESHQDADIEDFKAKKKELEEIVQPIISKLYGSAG
peptide-binding domain of GRP78 (GRP78-PBD, amino acids 421-639), sequence (P11021 421-639): as above

Row | Molecule | Association rate Kon [1] | Dissociation rate Koff [1] | Kd [1] [nM] | Association rate Kon [2] | Dissociation rate Koff [2] | Kd [2] [nM] | Kd [3] [nM] | Koff value [3] | PBMC mediated lysis of N87 cells [4] [%] | PBMC mediated lysis of TOV21G cells [5] [%]
1 | RPFLFPFLFY [F4P13-TR-CTP] | 7.9 × 10^2 M^−1S^−1 | 1.7×10^−3 S^−1 | 2100 | 1.8 × 10^3 M^−1S^−1 | 1.2 × 10^−3 S^−1 | 660 | – | – | – | –
2 | RLLDTNRPFLFY [P13-CTP, reference compound] | 1.2 × 10^3 M^−1S^−1 | 3.4×10^−3 S^−1 | – | 9.7 × 10^2 M^−1S^−1 | 2.0 × 10^−3 S^−1 | 2700 | – | – | – | –
3 | RPFLFPFLFYRPFLFPFLFY [F5P13-TR-CTP] | 1.9 × 10^3 M^−1S^−1 | 1.2×10^−3 S^−1 | 610 | – | – | – | – | – | – | –
4 | F4P6-BsAb: bispecific antibody-like knob-and-hole heterodimer, anti-CD3 scFv plus F4P6-TR-CTP on both Fc C-termini, SEQ ID NO 12 and 14 (protein) chain 1: MGGRRVRWEVYISRAGYVNRQIAWRRHHRSATMGWSLILLFLVAVATRVLSQVQLVQSGAEVKKPGASVKVSCKASGYTFTRYTMHWVRQAPGQGLEWIGYINPSRGYTNYNQKFKDKATLTTDKSISTAYMELSRLRSDDTAVYYCARYYDDHYTLDYWGQGTLVTVSSGGGGSGGGGSGGGGSEIVLTQSPATLSLSPGERATLSCSASSSVSYMNWYQQKPGQAPRRWIYDTSKLASGIPARFSGSGSGTSYTLTISSLEPEDFAVYYCQQWSSNPFTFGQGTKVEIKRSGGGGSGGGGSGGGGSTGTHTCPPCPAPELAGAPSVFLFPPKPKDTLMISRTPEVTCVVVDVSHEDPEVKFNWYVDGVEVHNAKTKPREEQYNSTYRVVSVLTVLHQDWLNGKEYKCKVSNKALPAPIEKTISKAKGQPREPQVCTLPPSREEMTKNQVSLSCAVKGFYPSDIAVEWESNGQPENNYKTTPPVLDSDGSFFLVSKLTVDKSRWQQGNVFSCSVMHEALHNHYTQKSLSLSPGKGGGGSGGGGSGGGGSRPFLPFLPY chain 2: MGGRRVRWEVYISRAGYVNRQIAWRRHHRSATMGWSLILLFLVAVATRVLSTGTHTCPPCPAPELAGAPSVFLFPPKPKDTLMISRTPEVTCVVVDVSHEDPEVKFNWYVDGVEVHNAKTKPREEQYNSTYRVVSVLTVLHQDWLNGKEYKCKVSNKALPAPIEKTISKAKGQPREPQVYTLPPCREEMTKNQVSLWCLVKGFYPSDIAVEWESNGQPENNYKTTPPVLDSDGSFFLYSKLTVDKSRWQQGNVFSCSVMHEALHNHYTQKSLSLSPGKGGGGSGGGGSGGGGSRPFLPFLPY | – | – | – | – | – | – | 1100 | 9.4×10^−4 S^−1 | 15 | 22

Further molecules by falling Kd [1], results first:

Row | Association rate Kon [1] | Dissociation rate Koff [1] | Kd [1] [nM] | Association rate Kon [2] | Dissociation rate Koff [2] | Kd [2] [nM] | Kd [3] [nM] | Koff value [3] | Molecule | PBMC mediated lysis of N87 cells [4] [%] | PBMC mediated lysis of TOV21G cells [5] [%]
5 | 1.5 × 10^3 M^−1S^−1 | 3.0×10^−3 S^−1 | 1900 | – | – | – | – | – | RLLDTNRPFLPY [P6-CTP, reference compound] | – | –
6 | 2.3 × 10^3 M^−1S^−1 | 2.8×10^−3 S^−1 | 1200 | – | – | – | – | – | RPFLPFLPY [F4P6-TR-CTP] | – | –
7 | 8.9 × 10^2 M^−1S^−1 | 9.1×10^−4 S^−1 | 1000 | – | – | – | – | – | RPFLPFLPYRPFLPFLPY [F5P6-TR-CTP] | – | –
